Source: patent publication US8039501B2, “Synephrine derivatives useful as anti-inflammatory agents” (Universiteit Gent, priority 2005, dated 2011)
Where two headings read alike, the source gives them in different places.

Tests used:
[1] = MTT test, cell viability of A549 cells; assay type: cell-based, human; settings: human, A549 lung epithelial (carcinoma) cells, read-out: Block of A549 cell viability
Method: (§1) The MTT test is a standard assay addressing cell toxicity of a compound. It is based on the principle that after 3-4 hours of cell incubation with MTT (3-(4,5-dimethylthiazole-2-yl)-2,5-diphenyl tetrazolium bromide) so-called purple formazan crystals develop in living and early apoptotic cells. Dead cells don't produce formazan crystals.
(§2) Different cell lines were tested. Unless indicated differently, A549 human lung epithelial cells (derived from lung carcinoma) and L929sA murine fibroblast cells were cultured in DMEM with 10% FCS, 100 U/ml penicillin and 100 μg/ml streptomycin. Unless indicated differently, the human multiple myeloma cell lines L363, U266 and MM1.S were cultured in RPMI 1640 with Glutamax-I, supplemented with 10% FCS, 100 U/ml penicillin and 100 μg/ml streptomycin. Cells were seeded at 5000 cells/well (for adherent A549 and L929sA cells) or at 10000 cells/well (for the multiple myeloma lines in suspension) in 96 well plates. Cells were incubated in the presence of the respective synephrine compounds or vehicle (EtOH; for control test) in a final volume of 0.2 ml for 24 or 48 hours at 37° C. Subsequently, 20 μl of MTT solution (5 mg/ml in phosphate-buffered saline) was added to each well. After 4 hours incubation at 37° C., 80 μl of the extraction buffer (10% SDS, 0.01 M HCl) was added. After overnight incubation at room temperature, the optical densities at 590 nm were measured. Results are illustrated in FIGS. 2 to 6 and are expressed as percentage of viable cells as compared to vehicle-treated controls.
(§3) In a further MTT test, the activity of the synephrine derivatives on the inhibition of cell viability of non-immune cells was measured. […] Tests were performed for 24 hours and for 48 hours. The results are illustrated by FIGS. 5A and 5B for L929 cells, and by FIGS. 6A and 6B for A549 cells. It was observed that CpdA at 10^−5 M blocked cell viability of L929sA and A549 for not more than 10%.

[2] = system: multiple myeloma cells U266; assay: MTT test, cell viability of U266 cells; assay type: cell-based, human
Method: as §1, §2
The MTT test was further extended to include alternative synephrine derivatives and a range of multiple myeloma cell lines for which the results are illustrated by FIGS. 3A, 3B and 4A. Human multiple myeloma cell lines L363, U266 and MM1.S were cultured in RPMI 1640 with Glutamax-I, supplemented with 10% FCS, 100 U/ml penicillin and 100 μg/ml streptomycin. Cells were seeded at 10000 cells/well in 96 well plates. Cells were incubated in the presence of test compounds or vehicle in a final volume of 0.2 ml for 24 or 48 hours at 37° C. The test compounds included in the test were the synephrine derivatives CpdA, Naphth, Benz and Isobut, and DEX as a comparative example. Subsequently, 20 μl of MTT solution (5 mg/ml in phosphate-buffered saline) was added to each well. After 4 hours incubation at 37° C., 80 μl of the extraction buffer (10% SDS, 0.01 M HCl) was added. After 48 hours incubation at room temperature, the optical densities at 590 nm were measured. Results are expressed as percentage of viable cells as compared to vehicle-treated controls.

MG63b = assay: Q-PCR gene expression in osteosarcoma cell-line MG63b; assay type: cell-based, human; settings: 10 μM
Method: CpdA was synthesized as described previously. […] They were sacrificed and livers were isolated. […] Gene expression of HPRT was used for normalization. […] Gene expression of HPRT was used for normalization. […] Gene expression of HPRT was used for normalization. Statistical significance was determined by one way anova. […] Gene expression of HPRT was used for normalization. […] Gene expression of HPRT was used for normalization. Statistical significance was determined by one way anova. […] Statistical significance was determined with a Kruskal-Wallis test.

[3] = MTT test, cell viability of L929sA fibroblasts; assay type: cell-based, murine; settings: mouse, L929sA fibroblast cells, read-out: Block of L929sA cell viability
Method: as §1, §2, §3

MCF7 breast cancer cells = settings: 10^−5 M
Method: In further experiments, nylon arrayfilter hybridization experiments were performed. cDNA array analyses were carried out according to the instructions of the manufacturer (SuperArray Simplicity GEArray™ KIT) on the cDNA arrays cancer pathway finder and stress and toxicity array. Total RNA, obtained by the protocol as described herein above, was used as a template for [α−^33P]-cDNA probe synthesis using the following steps:
A second array hybridization experiment was performed on Human Stress and Toxicity Pathway Finder GEarray Q series. The same protocol was followed as for the array hybridization experiment on the Human Cancer Pathway Finder described herein above.

CNCC(Cl)c1ccc(OC(C)=O)cc1.Cl (stereo not drawn) [CpdA, 2-(4-acetoxyphenyl)-2-chloro-N-methyl-ethylammonium chloride]
cytotoxicity at 24 h ([1]; 10^−4 M, 24 hours, FIG. 6A): 20%
cytotoxicity at 48 h ([1]; 10^−4 M, 48 hours, FIG. 6B): 40%
cytotoxicity ([1]; 10^−5 M, 24 hours and 48 hours, FIGS. 6A and 6B): ≤ 10%
Cell killing of U266 cells ([2]; 10^−4M, serum-containing medium, FIG. 2B): 60%
Cell killing of U266 cells ([2]; 10^−5M, growth medium with 10% fetal calf serum, 48 hours, FIG. 2B): 10%
Cell killing of U266 cells ([2]; 10^−5M, serum-free growth medium, 24 hours, FIG. 2A): 60%
Effect on cell viability of U266 cells ([2]; 10^−6 to 10^−5 M, 10% FCS, FIG. 3A): 15-20%
cytotoxicity at 100 µM ([2]; Homo sapiens, U-266, 10^−4 M, 10% FCS, FIG. 3A, read-out: Block of U266 cell viability / cell killing): 40%
cytotoxicity at 100 µM ([2]; Homo sapiens, U-266, 10^−4M, serum-free medium, FIG. 2A, read-out: Cell killing / reduction of viability of U266 cells): 80%
cytotoxicity at 1 µM ([2]; Homo sapiens, U-266, 10^−6M, serum-free growth medium, 24 hours, FIG. 2A, read-out: Inhibition of viability of U266 cells): 40%
Expression of OPG (MG63b; 24 hours, FIG. 14B): does not down-regulate the expression of OPG
Expression of cathepsin K (MG63b; 24 hours, FIG. 14B): does not stimulate the expression of cathepsin K
Expression of pro-inflammatory mediators (anti-inflammatory effect) (MG63b; TNF 2000 U/ml 6 hours, FIG. 14A): anti-inflammatory effect
cytotoxicity at 24 h ([3]; 10^−4 M, 24 hours, FIG. 5A): 20%
cytotoxicity at 48 h ([3]; 10^−4 M, 48 hours, FIG. 5B): 60%
cytotoxicity ([3]; 10^−5 M, 24 hours and 48 hours, FIGS. 5A and 5B): ≤ 10%
Gene response of CRYAB, DNAJA1, pcna, mdm2 (MCF7 breast cancer cells): increased gene response
Levels of HSPA1A, HSPA1B, HSPA4 (=hsp70), CSF2, SCYA4 (MIP1B), ANXA5, casp10, casp8, ERCC5, TNFSF6 (FasL) (MCF7 breast cancer cells): increases levels
